In brackets after ≈: the same amount, converted by molar mass.
Key:
physchem = settings: thermodynamic from solid
[1] = literature (López-Nicolás 2009); cited from earlier work
[2] = literature; cited from earlier work
[3] = Solubility estimates at ambient temperature (gravimetric or incremental solvent addition); settings: thermodynamic from solid

Compound: CC(=O)[C@H]1CC[C@H]2[C@@H]3CCC4=CC(=O)CC[C@]4(C)[C@H]3CC[C@]12C [Progesterone, reference compound]
- solubility (physchem; organic solvent or mixture): 30 mg/mL (≈ 95.4 mM)

Compound: COc1cc(/C=C/c2ccc(O)cc2)cc(OC)c1 [Pterostilbene]
- Solubility in water [1]: poor solubility in water
- Bioavailability [2]: poor bioavailability
- solubility ([3]; ACN, organic solvent or mixture, solvent ACN, ambient temperature): > 203 mg/mL
- solubility ([3]; EtOAc, organic solvent or mixture, solvent EtOAc, ambient temperature): > 201 mg/mL
- solubility ([3]; EtOH, organic solvent or mixture, solvent EtOH, ambient temperature): 410 mg/mL (≈ 1600 mM)
- solubility ([3]; MEK, organic solvent or mixture, solvent MEK, ambient temperature (Table 1)): > 200 mg/mL
- solubility ([3]; MTBE, organic solvent or mixture, solvent MTBE, ambient temperature): > 200 mg/mL
- solubility ([3]; heptane, organic solvent or mixture, solvent Heptane, ambient temperature): < 2 mg/mL
- solubility ([3]; isopropanol/water with water content 70% and higher, aqueous with cosolvent or surfactant or cyclodextrin): ≤ 2 mg/mL
- solubility ([3]; isopropanol:water 40:60, aqueous with cosolvent or surfactant or cyclodextrin, 40:60 isopropanol to water mixture): ~22 mg/mL (≈ 85.8 mM)
- solubility ([3]; isopropyl alcohol (IPA), organic solvent or mixture, solvent IPA (isopropyl alcohol), ambient temperature): 399 mg/mL (≈ 1560 mM)
- solubility ([3]; water, solvent Water, ambient temperature): 0.02 mg/mL (≈ 0.078 mM)
- solubility ([3]; water:IPA 55:45, aqueous with cosolvent or surfactant or cyclodextrin, solvent Water:IPA 55:45, ambient temperature): 22 mg/mL (≈ 85.8 mM)
- solubility ([3]; water:IPA 60:40, aqueous with cosolvent or surfactant or cyclodextrin, solvent Water:IPA 60:40, ambient temperature): 22 mg/mL (≈ 85.8 mM)
- solubility ([3]; water:IPA 70:30, aqueous with cosolvent or surfactant or cyclodextrin, solvent Water:IPA 70:30, ambient temperature): 2 mg/mL (≈ 7.8 mM)
- solubility ([3]; water:ethanol 50:50 v/v, aqueous with cosolvent or surfactant or cyclodextrin, solvent system Water:ethanol 50:50 v/v, ambient temperature): 54 mg/mL (≈ 211 mM)

Compound: NC(=O)c1cccnc1 [nicotinamide]
- solubility (physchem; organic solvent or mixture): 42 mg/mL (≈ 344 mM)

Compound: C1CNCCN1 [piperazine]
- solubility (physchem; aqueous with cosolvent or surfactant or cyclodextrin): > 324 mg/mL

Reference: patent publication US9120766B2, “Methods of making cocrystals” (Aptuit (West Lafayette), LLC, priority 2011, dated 2015)
